Legend:
Experiment in all cases: IA-DTB cysteine engagement
Format in all cases: binding
Conditions in all cases: 22Rv1 cells, 20 μM probe, 1 h, relative to DMSO
[1] = target: T1, ALB_C269 (Homo sapiens, UniProt P02768)
T1 construct: endogenous in cells; host or cells: 22Rv1
Procedure, shortened: (§1)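 Probe-exposed cells were lysed, IA-DTB-labeled, trypsinized and streptavidin-enriched. Multiplexed TMT quantitation gave engagement ratios versus DMSO, with non-tryptic peptides excluded and intensities normalized to median summed signal.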

[2] = target: T2, CCNE2_C109 (Homo sapiens, UniProt O96020)
T2 construct: endogenous in cells; host or cells: 22Rv1
T2 sequence (O96020 whole entry): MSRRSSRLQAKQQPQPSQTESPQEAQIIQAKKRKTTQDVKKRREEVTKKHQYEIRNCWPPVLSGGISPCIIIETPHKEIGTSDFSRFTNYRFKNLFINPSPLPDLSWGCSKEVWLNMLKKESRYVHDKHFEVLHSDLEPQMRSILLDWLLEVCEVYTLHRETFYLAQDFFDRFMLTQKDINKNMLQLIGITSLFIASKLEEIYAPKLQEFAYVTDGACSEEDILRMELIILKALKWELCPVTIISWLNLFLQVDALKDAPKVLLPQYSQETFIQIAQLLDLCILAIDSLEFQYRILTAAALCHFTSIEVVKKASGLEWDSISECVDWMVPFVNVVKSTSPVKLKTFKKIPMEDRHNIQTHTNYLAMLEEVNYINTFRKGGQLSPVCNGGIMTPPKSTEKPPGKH
Procedure, shortened: as §1

[3] = target: T3, HMOX2_C265 (Homo sapiens, UniProt P30519)
T3 construct: endogenous in cells; host or cells: 22Rv1
T3 sequence (P30519 1-316): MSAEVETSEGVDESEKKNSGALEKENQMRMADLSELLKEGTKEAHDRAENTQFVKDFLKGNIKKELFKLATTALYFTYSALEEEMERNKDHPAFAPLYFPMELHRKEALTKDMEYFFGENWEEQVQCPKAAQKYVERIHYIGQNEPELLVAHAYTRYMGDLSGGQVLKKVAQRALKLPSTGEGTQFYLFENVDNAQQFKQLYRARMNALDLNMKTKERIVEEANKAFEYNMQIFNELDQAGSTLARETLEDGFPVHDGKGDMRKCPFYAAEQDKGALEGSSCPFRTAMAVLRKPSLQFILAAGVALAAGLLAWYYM
Procedure, shortened: as §1

[4] = target: T4, PDP1_C149 (Homo sapiens, UniProt Q9P0J1)
T4 construct: endogenous in cells; host or cells: 22Rv1
T4 sequence (Q9P0J1 72-537): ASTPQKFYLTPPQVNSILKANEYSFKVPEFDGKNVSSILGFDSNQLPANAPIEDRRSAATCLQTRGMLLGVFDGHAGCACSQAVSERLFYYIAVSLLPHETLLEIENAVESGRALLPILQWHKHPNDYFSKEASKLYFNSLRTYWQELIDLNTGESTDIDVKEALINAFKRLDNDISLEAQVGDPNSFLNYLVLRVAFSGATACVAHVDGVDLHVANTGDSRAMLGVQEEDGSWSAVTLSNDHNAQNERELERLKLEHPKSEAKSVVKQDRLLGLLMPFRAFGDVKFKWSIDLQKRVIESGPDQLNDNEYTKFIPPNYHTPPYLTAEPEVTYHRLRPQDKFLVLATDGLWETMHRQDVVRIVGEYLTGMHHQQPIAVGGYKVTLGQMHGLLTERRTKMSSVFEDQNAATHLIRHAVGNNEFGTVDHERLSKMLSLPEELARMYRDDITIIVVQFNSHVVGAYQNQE
Procedure, shortened: as §1

T1 sequence (P02768 25-609): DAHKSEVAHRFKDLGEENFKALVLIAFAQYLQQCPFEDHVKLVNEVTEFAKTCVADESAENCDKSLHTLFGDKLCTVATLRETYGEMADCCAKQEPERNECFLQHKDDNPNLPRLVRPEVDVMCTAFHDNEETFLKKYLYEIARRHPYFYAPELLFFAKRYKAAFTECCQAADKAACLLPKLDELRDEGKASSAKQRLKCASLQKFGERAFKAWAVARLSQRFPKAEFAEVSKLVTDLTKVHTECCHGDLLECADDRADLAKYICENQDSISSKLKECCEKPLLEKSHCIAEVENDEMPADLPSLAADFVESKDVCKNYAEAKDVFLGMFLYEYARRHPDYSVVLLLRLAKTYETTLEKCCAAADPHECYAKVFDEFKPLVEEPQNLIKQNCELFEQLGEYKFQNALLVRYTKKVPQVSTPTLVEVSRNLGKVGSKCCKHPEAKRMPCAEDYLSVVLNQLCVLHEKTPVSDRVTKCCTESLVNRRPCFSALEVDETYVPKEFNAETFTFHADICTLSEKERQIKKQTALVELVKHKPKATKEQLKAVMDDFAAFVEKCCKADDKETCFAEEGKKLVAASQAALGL

For `C=CC(=O)N1C[C@H](c2ccc(Br)cc2)[C@H]1C(=O)Nc1cccc2cccnc12` [MY-3A, (2S,3S)-1-acryloyl-3-(4-bromophenyl)-N-(quinolin-8-yl)azetidine-2-carboxamide], the “% engagement ALB_C269” value [1] was 86%, the “% engagement CCNE2_C109” value [2] was 21.75% and the “% engagement HMOX2_C265” value [3] was 71.75%. The “% engagement PDP1_C149” value [4] was 19.25%.

`C=CC(=O)N1C[C@H](c2ccc(Br)cc2)[C@@H]1C(=O)Nc1cccc2cccnc12` [MY-1B, (2R,3S)-1-acryloyl-3-(4-bromophenyl)-N-(quinolin-8-yl)azetidine-2-carboxamide] was tested, and the “% engagement ALB_C269” value [1] was 47.5%, the “% engagement CCNE2_C109” value [2] was 76.75% and the “% engagement HMOX2_C265” value [3] was 73.5%. The “% engagement PDP1_C149” value [4] was 37.25%.

In the case of `C=CC(=O)N1C[C@H](c2ccc(Br)cc2)[C@H]1C(=O)Nc1cccc2cccnc12` [MY-3B, (2S,3S)-1-acryloyl-3-(4-bromophenyl)-N-(quinolin-8-yl)azetidine-2-carboxamide], the “% engagement ALB_C269” value [1] is reported as 79.5%, the “% engagement CCNE2_C109” value [2] is reported as 42.75% and the “% engagement HMOX2_C265” value [3] is reported as 79.5%. For the same molecule, the “% engagement PDP1_C149” value [4] was 37.25%.

For `C=CC(=O)N1C[C@@H](c2ccc(Br)cc2)[C@H]1C(=O)Nc1cccc2cccnc12` [MY-1A, (2S,3R)-1-acryloyl-3-(4-bromophenyl)-N-(quinolin-8-yl)azetidine-2-carboxamide], the “% engagement ALB_C269” value [1] was 42.5%, the “% engagement CCNE2_C109” value [2] was 77% and the “% engagement HMOX2_C265” value [3] was 72.5%. The “% engagement PDP1_C149” value [4] was 67%.
